Measurements reported in patent US8470811B2, “Substituted heterocyclylbenzylpyrazoles and use thereof” (Bayer Intellectual Property GmbH, priority 2010, dated 2013).

Assays:
[1] = Pharmacokinetic parameters after intravenous administration in rats; format: in vivo; conditions: for half-life / Vd / clearance: rat, iv, 0.3-1.0 mg/kg, solution in plasma with up to 2% DMSO; for Vd: read-out: VSS; for clearance: read-out: CLplasma (converted)
Method: (§1) The substance to be examined was administered to animals (for example mice or rats) intravenously as a solution (for example in corresponding plasma with a small addition of DMSO or in a PEG/ethanol/water mixture), and peroral administration was effected as a solution (for example in Solutol/ethanol/water or PEG/ethanol/water mixtures) or as a suspension (e.g. in tylose), in each case via a gavage. After administration of the substance, blood was taken from the animals at fixed times. The blood was heparinized, then plasma was obtained therefrom by centrifugation. The substance was quantified analytically in the plasma via LC-MS/MS. From the plasma concentration/time plots determined in this way, using an internal standard and with the aid of a validated computer program, the pharmacokinetic parameters, such as AUC (area under the concentration/time curve), Cmax (maximum plasma concentration), t1/2 (half life), VSS (distribution volume) and CL (clearance), and the absolute and relative bioavailability F and Frel (i.v./p.o. comparison or comparison of suspension to solution after p.o. administration), were calculated.
The substance to be examined was administered intravenously to rats, in each case in amounts between 0.3 and 1.0 mg/kg as a solution in plasma which contained up to 2% DMSO.

[2] = Pharmacokinetic parameters after peroral administration in rats; format: in vivo; conditions: for half-life: rat, plasma, po
Method: as §1
To determine the active ingredient release from a prodrug compound, the prodrug was administered either intravenously or perorally, as described above, and the concentrations both of the prodrug and of the active ingredient released were quantified in the processed plasma.
The substance to be examined was administered perorally to rats, in each case in amounts between 1 and 3 mg/kg as a solution in Solutol/ethanol/water (40:10:50 or 40:20:40). The kinetic parameters determined for Working Example 1 are shown below by way of example for the inventive compounds [AUCnorm=dose-normalized exposure (area under the concentration/time curve)]:
The second row in this table gives the pharmacokinetic parameters for Example 1, as obtained after peroral administration of the prodrug compound from Example 15 (1 mg/kg of crystalline substance as a tylose suspension in water).

[3] = pH-dependent hydrolysis stability; format: physicochemical
Method: 0.3 mg of the test substance (prodrug) was weighed into a 2 ml HPLC vial, and 0.6 ml of acetonitrile or acetonitrile/DMSO mixture (with up to 20 percent by volume of DMSO) was added. To dissolve the substance, the sample vessel was placed into an ultrasound bath for approx. 10 seconds. Subsequently, 1.0 ml of the particular aqueous buffer solution was added (commercially available buffer solutions of pH 2, 4, 6.5, 8 and 10) and the sample was treated again in the ultrasound bath. Over a period of 24 hours at 37° C., 5 μl of the sample solution were analysed by HPLC every hour for its content of unchanged prodrug or active ingredient released therefrom by hydrolysis. Quantification was effected via the area percentages of the corresponding HPLC peaks.

[4] = rats, 1-3 mg/kg, solution in Solutol/ethanol/water
[5] = rats, p.o., 1-3 mg/kg, solution in Solutol/ethanol/water

Cc1ccc(Cn2nc(-c3nc(-c4ccc(OC(F)(F)F)cc4)no3)cc2C)cc1 [Example 1 in WO 2008/141731-A2, 5-[5-methyl-1-(4-methylbenzyl)-1H-pyrazol-3-yl]-3-[4-(trifluoromethoxy)phenyl]-1,2,4-oxadiazole, reference compound]
CLplasma ([1]; intravenous administration): 0.4 I/h/kg
half-life [1]: 30 h
Vd [1]: 6.9 L/kg
half-life [2, 4]: 29 h
AUCnorm [2, 5]: 1.9 kg·h/L
F [2, 5]: 74%

Cc1cc(-c2nc(-c3ccc(OC(F)(F)F)cc3)no2)nn1Cc1cccc(N2CC(O)C2)c1 [Example 1, 1-{3-[(5-Methyl-3-{3-[4-(trifluoromethoxy)phenyl]-1,2,4-oxadiazol-5-yl}-1H-pyrazol-1-yl)methyl]phenyl}azetidin-3-ol]
half-life [1]: 6.8 h
clearance [1]: 26.7 mL/min/kg
Vd [1]: 12 L/kg
AUCnorm ([2]; Example 1 in rat plasma after p.o. administration of prodrug Example 15, 1 mg/kg crystalline substance as tylose suspension in water): 0.35 kg·h/L
half-life [2, 4]: 12 h
AUCnorm [2, 5]: 0.43 kg·h/L
F [2, 5]: 68%

Cc1cc(-c2nc(-c3ccc(SC(F)(F)F)cc3)no2)nn1Cc1cccc(N2CCC(O)CC2)c1 [Example 14, 1-(3-{[5-Methyl-3-(3-{4-[(trifluoromethyl)sulphanyl]phenyl}-1,2,4-oxadiazol-5-yl)-1H-pyrazol-1-yl]methyl}phenyl)piperidin-4-ol]
half-life [1]: 8.2 h
clearance [1]: 12 mL/min/kg
Vd [1]: 7.8 L/kg

Cc1cc(-c2nc(-c3ccc(OC(F)(F)F)cc3)no2)nn1Cc1cccc(N2CC(OC(=O)CN(C)C)C2)c1 [Example 15, 1-{3-[(5-Methyl-3-{3-[4-(trifluoromethoxy)phenyl]-1,2,4-oxadiazol-5-yl}-1H-pyrazol-1-yl)methyl]phenyl}azetidin-3-yl N,N-dimethylglycinate]
% Example 15 prodrug ([3]; pH 2, 37° C., 12 h): 89%
% Example 15 prodrug ([3]; pH 4, 37° C., 12 h): 89%
% Example 15 prodrug ([3]; pH 6.5, 37° C., 0 h): 94%
% Example 15 prodrug ([3]; pH 6.5, 37° C., 2 h): 91%
% Example 15 prodrug ([3]; pH 6.5, 37° C., 4 h): 87%
% Example 15 prodrug ([3]; pH 6.5, 37° C., 6 h): 84%
% Example 15 prodrug ([3]; pH 6.5, 37° C., 12 h): 73%
% Example 15 prodrug ([3]; pH 6.5, 37° C., 24 h): 56%
% Example 15 prodrug ([3]; pH 8, 37° C., 12 h): 64%
% Example 15 prodrug ([3]; pH 10, 37° C., 12 h): 0%
% Example 1 active ingredient ([3]; released from Example 15, pH 2, 37° C., 12 h): 6%
% Example 1 active ingredient ([3]; released from Example 15, pH 4, 37° C., 12 h): 9%
% Example 1 active ingredient ([3]; released from Example 15, pH 6.5, 37° C., 0 h): 3%
% Example 1 active ingredient ([3]; released from Example 15, pH 6.5, 37° C., 2 h): 7%
% Example 1 active ingredient ([3]; released from Example 15, pH 6.5, 37° C., 4 h): 10%
% Example 1 active ingredient ([3]; released from Example 15, pH 6.5, 37° C., 6 h): 13%
% Example 1 active ingredient ([3]; released from Example 15, pH 6.5, 37° C., 12 h): 22%
% Example 1 active ingredient ([3]; released from Example 15, pH 6.5, 37° C., 24 h): 35%
% Example 1 active ingredient ([3]; released from Example 15, pH 8, 37° C., 12 h): 30%
% Example 1 active ingredient ([3]; released from Example 15, pH 10, 37° C., 12 h): 78%
prodrug compound itself in the plasma of the rats ([2]; after p.o. administration of Example 15, 1 mg/kg tylose suspension, all times examined): not detectable
